Data as given in patent US20230172897A1, “METHODS OF TREATING BREAST CANCERS WITH SELECTIVE ANDROGEN RECEPTOR MODULATORS AND ADDITIONAL THERAPEUTIC AGENTS” (VERU, INC., priority 2021, published 2023).

What was measured:
PR = molecular target: T1, PR (Rattus norvegicus, UniProt Q63449); assay: Transcriptional activation (luciferase) in HEK-293 cells; format: cell-based
T1 construct: expressed in transfected cells
T1 sequence (Q63449 1-923): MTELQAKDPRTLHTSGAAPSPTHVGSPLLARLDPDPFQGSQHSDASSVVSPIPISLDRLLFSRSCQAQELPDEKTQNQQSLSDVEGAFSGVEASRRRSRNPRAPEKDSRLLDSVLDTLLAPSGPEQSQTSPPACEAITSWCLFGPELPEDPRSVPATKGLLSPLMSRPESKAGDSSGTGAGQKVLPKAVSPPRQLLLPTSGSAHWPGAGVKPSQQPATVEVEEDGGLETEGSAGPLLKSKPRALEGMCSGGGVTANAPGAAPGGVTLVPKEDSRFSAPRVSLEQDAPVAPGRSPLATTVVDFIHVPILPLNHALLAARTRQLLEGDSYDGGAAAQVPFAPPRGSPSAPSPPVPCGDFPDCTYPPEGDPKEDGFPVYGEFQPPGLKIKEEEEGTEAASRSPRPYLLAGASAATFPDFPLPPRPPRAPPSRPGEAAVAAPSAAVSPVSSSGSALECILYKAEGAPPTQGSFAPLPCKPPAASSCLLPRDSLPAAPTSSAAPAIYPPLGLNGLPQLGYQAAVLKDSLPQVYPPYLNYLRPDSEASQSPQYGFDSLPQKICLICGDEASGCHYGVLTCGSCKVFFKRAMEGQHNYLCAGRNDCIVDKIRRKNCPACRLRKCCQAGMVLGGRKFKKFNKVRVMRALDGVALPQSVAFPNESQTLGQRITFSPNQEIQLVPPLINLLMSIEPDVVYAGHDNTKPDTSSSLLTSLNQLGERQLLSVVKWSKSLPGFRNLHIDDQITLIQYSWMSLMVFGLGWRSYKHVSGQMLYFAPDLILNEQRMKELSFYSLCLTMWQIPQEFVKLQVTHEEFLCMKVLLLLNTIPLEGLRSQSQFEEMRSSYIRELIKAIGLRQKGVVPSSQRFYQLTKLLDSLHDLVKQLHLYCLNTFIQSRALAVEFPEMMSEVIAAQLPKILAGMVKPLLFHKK
Method: (§1) Rat GR, MR, PR, ER-α and ER-β were individually cloned into a pCR3.1 vector backbone. Sequencing was performed to verify the absence of any mutations. HEK-293 cells were plated at 90,000 cells per well of a 24 well plate in Dulbecco's Minimal Essential Media supplemented with 5% charcoal-stripped FBS. […] Luciferase assays were performed 48 h after transfection. Transcriptional activation values are represented as firefly luciferase normalized to renilla luciferase.

GR = molecular target: T2, GR (Rattus norvegicus, UniProt P06536); assay: as above; format: cell-based
T2 construct: expressed in transfected cells
Method: as §1

ER-α = molecular target: T3, ER-α (Rattus norvegicus, UniProt P06211); assay: as above; format: cell-based
T3 construct: expressed in transfected cells
Method: as §1

MR = molecular target: T4, MR (Rattus norvegicus, UniProt P22199); assay: as above; format: cell-based
T4 construct: expressed in transfected cells
T4 sequence (P22199 1-981): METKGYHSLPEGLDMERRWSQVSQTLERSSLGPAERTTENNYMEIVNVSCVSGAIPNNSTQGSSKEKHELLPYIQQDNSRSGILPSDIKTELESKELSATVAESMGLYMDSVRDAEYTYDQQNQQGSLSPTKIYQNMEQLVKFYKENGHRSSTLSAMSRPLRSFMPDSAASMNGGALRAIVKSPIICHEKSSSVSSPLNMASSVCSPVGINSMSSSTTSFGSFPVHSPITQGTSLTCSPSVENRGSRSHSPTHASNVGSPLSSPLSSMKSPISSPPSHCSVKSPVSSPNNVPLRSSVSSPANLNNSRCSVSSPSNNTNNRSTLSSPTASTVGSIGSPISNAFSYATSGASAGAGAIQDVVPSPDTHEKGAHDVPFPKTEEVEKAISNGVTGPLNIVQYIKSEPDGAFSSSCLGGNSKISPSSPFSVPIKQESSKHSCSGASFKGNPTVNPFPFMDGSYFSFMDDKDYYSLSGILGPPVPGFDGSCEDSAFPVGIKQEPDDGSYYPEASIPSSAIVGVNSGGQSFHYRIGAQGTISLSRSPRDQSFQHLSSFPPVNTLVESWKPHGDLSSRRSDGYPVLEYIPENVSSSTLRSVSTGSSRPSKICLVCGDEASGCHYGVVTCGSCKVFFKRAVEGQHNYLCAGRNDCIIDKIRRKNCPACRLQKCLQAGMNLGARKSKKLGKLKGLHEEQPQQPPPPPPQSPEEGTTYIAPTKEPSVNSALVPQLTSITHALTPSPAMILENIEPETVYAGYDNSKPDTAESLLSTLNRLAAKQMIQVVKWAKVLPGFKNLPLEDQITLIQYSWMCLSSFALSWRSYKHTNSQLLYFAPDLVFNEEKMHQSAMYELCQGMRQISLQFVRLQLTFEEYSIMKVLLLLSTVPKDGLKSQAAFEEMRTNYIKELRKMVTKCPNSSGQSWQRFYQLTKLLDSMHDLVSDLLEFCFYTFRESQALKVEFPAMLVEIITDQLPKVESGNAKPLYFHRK
Method: as §1

JNK = assay: Phospho MAPK array of MCF-7-AR tumors; parameters: species or system mice; conditions: mouse, in vivo
Method: Protein from MCF-7-AR tumors that were treated with vehicle or compound of Formula VIII were extracted and incubated with phospho MAPK array to determine the effect of compound of Formula VIII on phosphorylation of various kinases.

[1] = agonist mode, all tested concentrations

T2 sequence (P06536 whole entry): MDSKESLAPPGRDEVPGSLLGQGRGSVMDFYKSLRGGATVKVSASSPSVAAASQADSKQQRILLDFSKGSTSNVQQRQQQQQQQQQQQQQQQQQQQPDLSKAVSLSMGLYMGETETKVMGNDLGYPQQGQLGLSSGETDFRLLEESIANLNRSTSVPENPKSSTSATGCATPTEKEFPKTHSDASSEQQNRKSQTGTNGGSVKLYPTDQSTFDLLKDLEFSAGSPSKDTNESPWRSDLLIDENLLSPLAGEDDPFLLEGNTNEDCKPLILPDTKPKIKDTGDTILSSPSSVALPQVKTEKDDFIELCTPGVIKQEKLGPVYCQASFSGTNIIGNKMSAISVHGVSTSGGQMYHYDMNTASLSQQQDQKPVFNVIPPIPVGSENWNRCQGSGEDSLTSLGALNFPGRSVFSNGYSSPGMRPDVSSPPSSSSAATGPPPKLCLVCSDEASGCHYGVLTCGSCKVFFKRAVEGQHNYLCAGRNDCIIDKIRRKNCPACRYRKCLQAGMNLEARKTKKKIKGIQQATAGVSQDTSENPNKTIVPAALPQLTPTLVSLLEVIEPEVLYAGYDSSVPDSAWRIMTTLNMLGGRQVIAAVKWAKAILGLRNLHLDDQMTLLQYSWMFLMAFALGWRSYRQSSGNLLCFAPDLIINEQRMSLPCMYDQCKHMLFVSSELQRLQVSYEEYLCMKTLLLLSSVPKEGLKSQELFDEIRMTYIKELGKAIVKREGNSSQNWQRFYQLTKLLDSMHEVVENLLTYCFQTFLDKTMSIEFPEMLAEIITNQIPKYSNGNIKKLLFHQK
T3 sequence (P06211 whole entry): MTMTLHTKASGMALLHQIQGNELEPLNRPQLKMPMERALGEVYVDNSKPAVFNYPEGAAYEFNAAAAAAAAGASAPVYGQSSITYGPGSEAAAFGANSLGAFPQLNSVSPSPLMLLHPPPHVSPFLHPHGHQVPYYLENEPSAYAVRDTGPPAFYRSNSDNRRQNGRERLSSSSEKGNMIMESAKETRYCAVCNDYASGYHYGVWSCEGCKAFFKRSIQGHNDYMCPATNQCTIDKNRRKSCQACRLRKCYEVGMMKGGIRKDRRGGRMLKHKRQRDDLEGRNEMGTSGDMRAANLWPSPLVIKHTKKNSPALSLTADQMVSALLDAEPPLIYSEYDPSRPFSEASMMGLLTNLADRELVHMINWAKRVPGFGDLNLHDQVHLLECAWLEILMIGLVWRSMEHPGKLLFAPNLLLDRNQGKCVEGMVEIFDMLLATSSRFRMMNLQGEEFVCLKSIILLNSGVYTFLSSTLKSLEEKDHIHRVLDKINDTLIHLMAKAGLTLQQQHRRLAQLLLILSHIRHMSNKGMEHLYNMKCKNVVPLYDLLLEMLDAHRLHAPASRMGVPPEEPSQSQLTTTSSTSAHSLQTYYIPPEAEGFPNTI

Which “fold weaker than the endogenous agonist for PR” value (PR; agonist mode) does the source give for C[C@](O)(COc1ccc(C#N)cc1)C(=O)Nc1ccc(C#N)c(Cl)c1 [Formula VIII, (S)—N-(3-chloro-4-cyanophenyl)-3-(4-cyanophenoxy)-2-hydroxy-2-methylpropanamide] here?
The value was “greater than 10,000 fold”.

What about the “increase of PR transactivation” value (PR; agonist mode, 1 μM) of the same compound?
The value was 3 fold.

And the “increase of PR transactivation” value (PR; agonist mode, 10 μM)?
Its value is 8 fold.

What about the “PR antagonist potency in comparison to Formula IX (times more potent)” value (PR; antagonist mode) of the same compound?
The value was 10 times.

What about the “PR antagonist potency in comparison to R-enantiomer of Formula IX (times more potent)” value (PR; antagonist mode) of the same compound?
Its value is 100 times.

And the “PR antagonist potency in comparison to RU486 (fold weaker)” value (PR; antagonist mode)?
The value was “about 1,000 fold”.

And the “inhibition of PR activity, dose response” value (PR; antagonist mode)?
Its value is “potent partial inhibition”.

And the GR-mediated transactivation (GR; [1])?
Its GR-mediated transactivation is “did not induce”.

What about the “dexamethasone-induced GR-mediated transactivation” value (GR; antagonist mode) of the same compound?
The value was “failed to alter”.

And the ER-α-mediated transactivation (ER-α; agonist mode, highest tested concentration 1 μM)?
The ER-α-mediated transactivation was “failed to activate”.

What about the “17β-estradiol-induced ER-α activity” value (ER-α; antagonist mode) of the same compound?
The value was “failed to alter”.

What about the MR-mediated transactivation (MR; [1]) of the same compound?
The MR-mediated transactivation was “did not induce”.

What about the “aldosterone-induced MR-mediated transactivation” value (MR; antagonist mode) of the same compound?
The value was “failed to alter”.

And the “JNK phosphorylation in MCF-7-AR tumors” value (JNK)?
The value was “upregulated”.
